Laboratory results reported in patent publication US6624203B1, “Nucleic acid bases used in ophthalmic solutions” (priority 2001, dated 2003).

What was measured:
[1] = test system: Acanthamoeba castellanii cysts; experiment: In vitro anti-acanthamoeba activity (serial dilution, viable trophozoites, log reduction); format: cell-based; details: 0.5% guanine with PHMB 0.02% versus control without guanine
Method: A formulation containing 0.5% guanine was prepared in a 0.2% glycine buffer at pH 7.35. The solution was preserved with polyhexamethylene biquanide at 0.02%. A similar control was prepared except without the guanine. The in vitro anti-acanthamoeba activity of the test and control solutions was determined by exposing Acanthamoeba castellanii cysts to 2 ml of each solution at room temperature for 10 minutes. Subsequently, an aliquot of each solution was serial diluted in duplicate and incubated for 14 days. At the conclusion of the incubation period, the dilutions were examined for viable Acanthamoeba trophozoites. The log reduction was determined based on a comparison to the inoculum control. A negative control was performed to verify the technique. The following table provides the results of the in vitro studies.

C. albicans = experiment: In vitro microbicidal activity against C. albicans (log reduction vs inoculum control); format: cell-based; details: 0.2% phosphate buffer, isotonic NaCl, PHMB 0.0001%, pH 7.2
Method: A formulation containing guanine was prepared in a 0.2% phosphate buffer. The solution was made isotonic with sodium chloride and preserved with polyhexamethylene biquanide at 0.0001%. The pH was adjusted to 7.2 with either 1 N sodium hydroxide or 1 N hydrochloric acid. The in vitro microbicidal activity of the test and control solution was determined by exposing C. albicans to 10 ml of each solution at room temperature for 4 and 24 hours. Subsequently, an aliquot of each solution was serial diluted onto agar plates and incubated for 48 hours at elevated temperatures. At the conclusion of the incubation period the plates are examined for the development of colonies. The log reduction was determined based on a comparison to the inoculum control. The following table provides the results of the in vitro studies.

## Nc1nc2nc[nH]c2c(=O)[nH]1 [Guanine, guanine]
[1]
  Effect of guanine on activity of preserved formulations against Acanthamoeba: improves the activity of preserved formulations against Acanthamoeba
C. albicans; C. albicans exposed to 10 ml solution at room temperature for 4 hours
  log reduction, 4 hours: 0.97
C. albicans; C. albicans exposed to 10 ml solution at room temperature for 24 hours
  log reduction, 24 hours: 3.05
